Assay results: patent US8623869B2, “Compounds useful as inhibitors of ATR kinase” (Vertex Pharmaceuticals Incorporated, priority 2010, dated 2014)

molecular target: T1, full-length ATR (Homo sapiens, UniProt Q13535); assay: ATR Inhibition Assay (radioactive-phosphate incorporation); format: biochemical; conditions: Ki(app); 5 nM full-length ATR, 10 μM ATP, 800 μM target peptide, 25° C.
T1 construct: Assays were carried out at 25° C. in the presence of 5 nM full-length ATR
Experimental: Compounds were screened for their ability to inhibit ATR kinase using a radioactive-phosphate incorporation assay. Assays were carried out in a mixture of 50 mM Tris/HCl (pH 7.5), 10 mM MgCl2 and 1 mM DTT. Final substrate concentrations were 10 μM [γ-33P]ATP (3mCi 33P ATP/mmol ATP, Perkin Elmer) and 800 μM target peptide (ASELPASQPQPFSAKKK).
Assays were carried out at 25° C. in the presence of 5 nM full-length ATR. An assay stock buffer solution was prepared containing all of the reagents listed above, with the exception of ATP and the test compound of interest. 13.5 μL of the stock solution was placed in a 96 well plate followed by addition of 2 μL of DMSO stock containing serial dilutions of the test compound (typically starting from a final concentration of 15 μM with 3-fold serial dilutions) in duplicate (final DMSO concentration 7%). The plate was pre-incubated for 10 minutes at 25° C. and the reaction initiated by addition of 15 μL [γ-33P]ATP (final concentration 10 μM).
The reaction was stopped after […] by the addition of 30 μL 0.1M phosphoric acid containing 2 mM ATP. A multiscreen phosphocellulose filter 96-well plate (Millipore, Cat no. MAPHN0B50) was pretreated with 100 μL 0.2M phosphoric acid prior to the addition of 45 μL of the stopped assay mixture. The plate was washed with 5×200 μL 0.2M phosphoric acid. After drying, 100 μL Optiphase ‘SuperMix’ liquid scintillation cocktail (Perkin Elmer) was added to the well prior to scintillation counting (1450 Microbeta Liquid Scintillation Counter, Wallac).
After removing mean background values for all of the data points, Ki(app) data were calculated from non-linear regression analysis of the initial rate data using the Prism software package (GraphPad Prism version 3.0cx for Macintosh, GraphPad Software, San Diego Calif., USA).

T1 sequence (Q13535 whole entry): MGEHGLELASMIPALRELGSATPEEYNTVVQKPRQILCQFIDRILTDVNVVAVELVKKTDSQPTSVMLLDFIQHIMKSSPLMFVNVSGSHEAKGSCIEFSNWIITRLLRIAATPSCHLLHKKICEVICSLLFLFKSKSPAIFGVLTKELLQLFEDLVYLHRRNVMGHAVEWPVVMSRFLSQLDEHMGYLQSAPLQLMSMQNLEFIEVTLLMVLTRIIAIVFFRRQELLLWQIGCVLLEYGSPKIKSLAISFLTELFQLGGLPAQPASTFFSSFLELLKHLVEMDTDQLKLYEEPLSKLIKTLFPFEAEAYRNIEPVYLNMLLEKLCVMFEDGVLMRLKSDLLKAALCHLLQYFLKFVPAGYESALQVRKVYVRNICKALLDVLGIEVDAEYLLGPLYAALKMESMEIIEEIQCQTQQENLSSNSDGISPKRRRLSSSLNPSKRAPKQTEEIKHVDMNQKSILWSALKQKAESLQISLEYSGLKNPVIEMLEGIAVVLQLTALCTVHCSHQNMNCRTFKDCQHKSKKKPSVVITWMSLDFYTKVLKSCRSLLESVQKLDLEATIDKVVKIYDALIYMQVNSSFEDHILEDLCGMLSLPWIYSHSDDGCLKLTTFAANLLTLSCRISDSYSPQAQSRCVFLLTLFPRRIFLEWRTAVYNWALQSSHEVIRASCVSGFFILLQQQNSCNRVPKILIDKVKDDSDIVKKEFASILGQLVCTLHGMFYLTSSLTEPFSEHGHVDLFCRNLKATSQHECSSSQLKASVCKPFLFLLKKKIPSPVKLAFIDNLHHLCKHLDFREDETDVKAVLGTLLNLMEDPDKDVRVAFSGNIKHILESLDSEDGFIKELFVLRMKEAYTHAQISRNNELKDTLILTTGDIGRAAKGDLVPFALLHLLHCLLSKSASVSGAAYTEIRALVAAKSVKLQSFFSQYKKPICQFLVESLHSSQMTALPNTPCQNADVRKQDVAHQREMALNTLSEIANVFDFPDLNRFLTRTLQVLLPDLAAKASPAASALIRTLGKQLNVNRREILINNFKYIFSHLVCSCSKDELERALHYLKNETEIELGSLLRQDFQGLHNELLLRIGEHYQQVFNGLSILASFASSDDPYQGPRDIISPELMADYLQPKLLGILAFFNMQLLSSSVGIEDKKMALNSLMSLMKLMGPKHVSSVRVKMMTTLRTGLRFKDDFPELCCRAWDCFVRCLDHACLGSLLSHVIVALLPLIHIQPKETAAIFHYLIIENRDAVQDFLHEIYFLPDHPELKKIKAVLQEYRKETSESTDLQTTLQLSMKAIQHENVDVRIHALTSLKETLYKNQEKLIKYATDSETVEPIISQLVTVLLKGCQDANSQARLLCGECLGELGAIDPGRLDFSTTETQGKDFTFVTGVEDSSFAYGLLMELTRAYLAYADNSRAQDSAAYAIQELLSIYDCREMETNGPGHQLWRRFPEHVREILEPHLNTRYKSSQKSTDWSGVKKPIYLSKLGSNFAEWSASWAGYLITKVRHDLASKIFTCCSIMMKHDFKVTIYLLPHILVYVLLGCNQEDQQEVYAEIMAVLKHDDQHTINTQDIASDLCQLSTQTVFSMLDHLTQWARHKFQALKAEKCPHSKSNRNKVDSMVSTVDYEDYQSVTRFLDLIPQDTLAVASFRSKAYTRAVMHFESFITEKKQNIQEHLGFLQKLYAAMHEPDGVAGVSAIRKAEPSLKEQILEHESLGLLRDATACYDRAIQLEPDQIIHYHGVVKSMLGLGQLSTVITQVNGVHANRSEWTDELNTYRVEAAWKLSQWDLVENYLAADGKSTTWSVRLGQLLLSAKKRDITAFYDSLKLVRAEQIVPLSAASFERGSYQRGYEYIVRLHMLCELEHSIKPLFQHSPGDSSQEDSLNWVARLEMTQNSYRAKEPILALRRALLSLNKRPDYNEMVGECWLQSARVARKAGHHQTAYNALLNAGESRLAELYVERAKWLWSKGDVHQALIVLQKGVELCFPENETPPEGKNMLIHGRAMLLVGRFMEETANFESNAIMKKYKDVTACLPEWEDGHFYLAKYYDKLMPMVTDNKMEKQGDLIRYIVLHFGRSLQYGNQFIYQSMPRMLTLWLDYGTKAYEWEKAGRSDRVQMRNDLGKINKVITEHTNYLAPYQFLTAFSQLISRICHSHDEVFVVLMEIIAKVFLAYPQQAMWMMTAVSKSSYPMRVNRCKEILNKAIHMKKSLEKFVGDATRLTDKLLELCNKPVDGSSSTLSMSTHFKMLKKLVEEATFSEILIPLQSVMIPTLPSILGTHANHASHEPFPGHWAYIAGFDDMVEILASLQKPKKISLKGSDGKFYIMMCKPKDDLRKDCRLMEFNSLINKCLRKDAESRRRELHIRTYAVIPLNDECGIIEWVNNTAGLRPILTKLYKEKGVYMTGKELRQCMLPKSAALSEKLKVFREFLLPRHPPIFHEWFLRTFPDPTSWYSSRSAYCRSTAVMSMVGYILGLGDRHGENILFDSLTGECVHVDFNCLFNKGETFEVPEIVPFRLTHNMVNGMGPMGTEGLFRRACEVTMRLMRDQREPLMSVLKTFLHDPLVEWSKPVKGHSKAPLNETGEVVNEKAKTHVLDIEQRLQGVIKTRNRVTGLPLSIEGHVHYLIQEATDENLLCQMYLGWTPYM

CC(C)S(=O)(=O)c1ccc(-c2cnc3[nH]cc(-c4ccc(C(=O)O)s4)c3n2)cc1 [Compound I-62, 5-[2-(4-isopropylsulfonylphenyl)-5H-pyrrolo[2,3-b]pyrazin-7-yl]thiophene-2-carboxylic acid] and CC(C)S(=O)(=O)c1ccc(-c2cnc3[nH]cc(-c4cn[nH]c4)c3n2)cc1 [Compound I-47, 2-(4-(isopropylsulfonyl)phenyl)-7-(1H-pyrazol-4-yl)-5H-pyrrolo[2,3-b]pyrazine] cannot be ordered by Ki: ≤ 0.01 µM for the first, 0.01 to 0.05 µM for the second.

CC(C)S(=O)(=O)c1ccc(-c2cnc3[nH]cc(-c4cncc(S(C)(=O)=O)c4)c3n2)cc1 [Compound I-48, 2-(4-isopropylsulfonylphenyl)-7-(5-methylsulfonyl-3-pyridyl)-5H-pyrrolo[2,3-b]pyrazine] and CC(C)S(=O)(=O)c1ccc(-c2cnc3[nH]cc(-c4cncc(C(C)(C)O)c4)c3n2)cc1 [Compound I-66, 2-[5-[2-(4-isopropylsulfonylphenyl)-5H-pyrrolo[2,3-b]pyrazin-7-yl]-3-pyridyl]propan-2-ol] cannot be ordered by Ki: 0.01 to 0.05 µM for the first, ≤ 0.01 µM for the second.

Cc1noc(C)c1-c1c[nH]c2ncc(-c3ccc(S(=O)(=O)C(C)C)cc3)nc12 [Compound I-25, 4-[2-(4-isopropylsulfonylphenyl)-5H-pyrrolo[2,3-b]pyrazin-7-yl]-3,5-dimethyl-isoxazole] and COc1cc(-c2c[nH]c3ncc(-c4ccc(S(=O)(=O)C(C)C)cc4)nc23)c(F)cn1 [Compound I-39, 7-(5-fluoro-2-methoxy-4-pyridyl)-2-(4-isopropylsulfonylphenyl)-5H-pyrrolo[2,3-b]pyrazine] cannot be ordered by Ki: > 0.05 µM for the first, > 0.05 µM for the second.

Compared with CC(C)S(=O)(=O)c1ccc(-c2cnc3[nH]cc(C#Cc4ccccc4)c3n2)cc1 [Compound I-2, 2-(4-Isopropylsulfonylphenyl)-7-(2-phenylethynyl)-5H-pyrrolo[2,3-b]pyrazine], CC(C)S(=O)(=O)c1ccc(-c2cnc3[nH]cc(-c4csc5ccccc45)c3n2)cc1 [Compound I-44, 7-(benzothiophen-3-yl)-2-(4-isopropylsulfonylphenyl)-5H-pyrrolo[2,3-b]pyrazine] is higher in Ki: 0.01 to 0.05 µM for the first, > 0.05 µM for the second. The first binds more tightly here.

First: CC(C)S(=O)(=O)c1ccc(-c2cnc3[nH]cc(-c4cc(-c5ccccc5)no4)c3n2)cc1 [Compound I-3, 5-[2-(4-Isopropylsulfonylphenyl)-5H-pyrrolo[2,3-b]pyrazin-7-yl]-3-phenyl-isoxazole]
Second: CC(C)S(=O)(=O)c1ccc(-c2cnc3[nH]cc(-c4ccnc5ccccc45)c3n2)cc1 [Compound I-43, 4-[2-(4-isopropylsulfonylphenyl)-5H-pyrrolo[2,3-b]pyrazin-7-yl]quinoline]
The Ki of the first is lower: ≤ 0.01 µM for the first, > 0.05 µM for the second.

COCc1ccccc1-c1c[nH]c2ncc(-c3ccc(S(=O)(=O)C(C)C)cc3)nc12 [Compound I-17, 2-(4-isopropylsulfonylphenyl)-7-[2-(methoxymethyl)phenyl]-5H-pyrrolo[2,3-b]pyrazine] and CC(C)S(=O)(=O)c1ccc(-c2cnc3[nH]cc(-c4ccccc4C(=O)N(C)C)c3n2)cc1 [Compound I-19, 2-[2-(4-isopropylsulfonylphenyl)-5H-pyrrolo[2,3-b]pyrazin-7-yl]-N,N-dimethyl-benzamide] cannot be ordered by Ki: > 0.05 µM for the first, > 0.05 µM for the second.

First: CC(C)S(=O)(=O)c1ccc(-c2cnc3[nH]cc(-c4cccnc4F)c3n2)cc1 [Compound I-24, 7-(2-fluoro-3-pyridyl)-2-(4-isopropylsulfonylphenyl)-5H-pyrrolo[2,3-b]pyrazine]
Second: CC(C)S(=O)(=O)c1ccc(-c2cnc3[nH]cc(-c4cccc5[nH]ccc45)c3n2)cc1 [Compound I-12, 7-(1H-indol-4-yl)-2-(4-isopropylsulfonylphenyl)-5H-pyrrolo[2,3-b]pyrazine]
The Ki of the first is lower: ≤ 0.01 µM for the first, > 0.05 µM for the second.

With CC(C)S(=O)(=O)c1ccc(-c2cnc3[nH]cc(-c4ccc(N(C)C)nc4)c3n2)cc1 [Compound I-37, 5-[2-(4-isopropylsulfonylphenyl)-5H-pyrrolo[2,3-b]pyrazin-7-yl]-N,N-dimethyl-pyridin-2-amine] the Ki was 0.01 to 0.05 µM.
